Measured values published in patent US20110098296A1, “Thiazole And Oxazole Kinase Inhibitors” (priority 2007, published 2011).

Tests used:
ErbB2 = molecular target: T1, ErbB2 (Homo sapiens, UniProt P04626); assay: ErbB-2 substrate phosphorylation assay (HTRF); assay type: biochemical; conditions: Method (A): Enzyme Mix incubated with compound at 20° C. for 1 hr, reaction started by adding Substrate Mix
T1 construct: made in house; host or cells: baculovirus expression system
Procedure, shortened: (§1)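 Baculovirus-expressed kinase (0.8 nM EGFR or 10 nM ErbB2 in enzyme mix) with Peptide C 0.8 μM and ATP 20 μM (substrate-mix levels), MOPS pH 7.5, MnCl2; 90 min, 20 °C, HTRF anti-phosphotyrosine. Method A adds 1 h enzyme–compound preincubation; B none. pIC50, final compound 0.00027–47.6 μM.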

EGFR = molecular target: T2, EGFR (Homo sapiens, UniProt P00533); assay: EGFR substrate phosphorylation assay (HTRF); assay type: biochemical; conditions: Method (A): Enzyme Mix incubated with compound at 20° C. for 1 hr, reaction started by adding Substrate Mix
T2 construct: made in house; host or cells: baculovirus expression system
Procedure, shortened: as §1

HT-29 tumor cells = assay: Method C: Cell Growth Inhibition Assay (CellTiter-Glo), HT-29; assay type: cell-based; conditions: Homo sapiens, HT-29, 72 h, 3 days, 4-parameter fit
Procedure, shortened: (§2)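 Growth inhibition is expressed as the concentration giving 50% inhibition relative to vehicle controls, derived from a 4-parameter fit. Tumor cells plated at 500 per well were exposed for 3 days to compound (0.2% DMSO) before total ATP was quantified by CellTiter-Glo.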

HN5 tumor cells = assay: Method C: Cell Growth Inhibition Assay (CellTiter-Glo), HN5; assay type: cell-based; conditions: Homo sapiens, 72 h, 3 days, 4-parameter fit
Procedure, shortened: as §2

Colo205 tumor cells = assay: Method C: Cell Growth Inhibition Assay (CellTiter-Glo), Colo205; assay type: cell-based; conditions: Homo sapiens, COLO 205, 72 h, 3 days, 4-parameter fit
Procedure, shortened: (§3)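 Luminescent ATP signal (CellTiter-Glo, after 30 min room-temperature equilibration) served as a surrogate for cell number after a 3-day compound exposure at 37° C. Cells were plated at 500/well and treated with serially diluted compound at 0.2% DMSO. IC50 values are 4-parameter fits against DMSO-treated wells.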

A375P F11s tumor cells = assay: Method C: Cell Growth Inhibition Assay (CellTiter-Glo), A375P F11s; assay type: cell-based; conditions: Homo sapiens, 72 h, 3 days, 4-parameter fit
Procedure, shortened: as §2

SK-MEL-28 tumor cells = assay: Method C: Cell Growth Inhibition Assay (CellTiter-Glo), SK-MEL-28; assay type: cell-based; conditions: Homo sapiens, SK-MEL-28, 72 h, 3 days, 4-parameter fit
Procedure, shortened: as §2

BT474 tumor cells = assay: Method C: Cell Growth Inhibition Assay (CellTiter-Glo), BT474; assay type: cell-based; conditions: Homo sapiens, BT-474, 72 h, 3 days, 4-parameter fit
SK-MEL-3 tumor cells = assay: Method C: Cell Growth Inhibition Assay (CellTiter-Glo), SK-MEL-3; assay type: cell-based; conditions: Homo sapiens, SK-MEL3, 72 h, 3 days, 4-parameter fit
Procedure, shortened: as §3

T1 sequence (P04626 23-1255): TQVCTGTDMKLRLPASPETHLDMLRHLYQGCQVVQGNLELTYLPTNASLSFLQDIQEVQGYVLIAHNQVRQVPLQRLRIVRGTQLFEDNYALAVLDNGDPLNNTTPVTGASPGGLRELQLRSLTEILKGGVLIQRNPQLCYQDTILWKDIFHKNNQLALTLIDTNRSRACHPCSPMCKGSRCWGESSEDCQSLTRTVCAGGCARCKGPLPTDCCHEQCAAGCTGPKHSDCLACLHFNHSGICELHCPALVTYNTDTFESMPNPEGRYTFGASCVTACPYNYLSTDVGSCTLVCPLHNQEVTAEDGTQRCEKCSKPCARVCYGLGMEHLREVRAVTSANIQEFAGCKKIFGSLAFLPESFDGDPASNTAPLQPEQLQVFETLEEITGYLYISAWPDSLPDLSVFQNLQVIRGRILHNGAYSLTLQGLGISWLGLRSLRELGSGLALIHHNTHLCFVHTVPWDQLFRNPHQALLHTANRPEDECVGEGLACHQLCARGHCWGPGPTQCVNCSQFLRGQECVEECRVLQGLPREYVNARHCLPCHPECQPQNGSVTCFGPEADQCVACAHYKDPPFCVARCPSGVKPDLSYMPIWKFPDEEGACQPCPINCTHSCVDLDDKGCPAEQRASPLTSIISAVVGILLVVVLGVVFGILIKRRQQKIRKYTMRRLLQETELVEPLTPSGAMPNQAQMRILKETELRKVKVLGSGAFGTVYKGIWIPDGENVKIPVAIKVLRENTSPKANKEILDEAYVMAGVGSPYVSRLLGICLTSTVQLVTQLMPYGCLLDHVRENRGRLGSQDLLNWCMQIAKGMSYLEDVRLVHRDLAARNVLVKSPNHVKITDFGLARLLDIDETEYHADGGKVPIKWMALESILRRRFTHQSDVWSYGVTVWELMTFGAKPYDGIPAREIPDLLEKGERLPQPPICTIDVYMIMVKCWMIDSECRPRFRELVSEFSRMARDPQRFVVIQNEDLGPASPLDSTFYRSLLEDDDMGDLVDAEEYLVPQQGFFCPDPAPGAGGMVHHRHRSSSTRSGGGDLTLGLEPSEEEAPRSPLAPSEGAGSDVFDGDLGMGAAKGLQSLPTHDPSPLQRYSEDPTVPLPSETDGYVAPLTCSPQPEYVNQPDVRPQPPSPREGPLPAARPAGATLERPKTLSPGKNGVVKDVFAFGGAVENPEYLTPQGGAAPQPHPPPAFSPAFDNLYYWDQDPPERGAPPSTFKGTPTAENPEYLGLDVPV
T2 sequence (P00533 25-1210): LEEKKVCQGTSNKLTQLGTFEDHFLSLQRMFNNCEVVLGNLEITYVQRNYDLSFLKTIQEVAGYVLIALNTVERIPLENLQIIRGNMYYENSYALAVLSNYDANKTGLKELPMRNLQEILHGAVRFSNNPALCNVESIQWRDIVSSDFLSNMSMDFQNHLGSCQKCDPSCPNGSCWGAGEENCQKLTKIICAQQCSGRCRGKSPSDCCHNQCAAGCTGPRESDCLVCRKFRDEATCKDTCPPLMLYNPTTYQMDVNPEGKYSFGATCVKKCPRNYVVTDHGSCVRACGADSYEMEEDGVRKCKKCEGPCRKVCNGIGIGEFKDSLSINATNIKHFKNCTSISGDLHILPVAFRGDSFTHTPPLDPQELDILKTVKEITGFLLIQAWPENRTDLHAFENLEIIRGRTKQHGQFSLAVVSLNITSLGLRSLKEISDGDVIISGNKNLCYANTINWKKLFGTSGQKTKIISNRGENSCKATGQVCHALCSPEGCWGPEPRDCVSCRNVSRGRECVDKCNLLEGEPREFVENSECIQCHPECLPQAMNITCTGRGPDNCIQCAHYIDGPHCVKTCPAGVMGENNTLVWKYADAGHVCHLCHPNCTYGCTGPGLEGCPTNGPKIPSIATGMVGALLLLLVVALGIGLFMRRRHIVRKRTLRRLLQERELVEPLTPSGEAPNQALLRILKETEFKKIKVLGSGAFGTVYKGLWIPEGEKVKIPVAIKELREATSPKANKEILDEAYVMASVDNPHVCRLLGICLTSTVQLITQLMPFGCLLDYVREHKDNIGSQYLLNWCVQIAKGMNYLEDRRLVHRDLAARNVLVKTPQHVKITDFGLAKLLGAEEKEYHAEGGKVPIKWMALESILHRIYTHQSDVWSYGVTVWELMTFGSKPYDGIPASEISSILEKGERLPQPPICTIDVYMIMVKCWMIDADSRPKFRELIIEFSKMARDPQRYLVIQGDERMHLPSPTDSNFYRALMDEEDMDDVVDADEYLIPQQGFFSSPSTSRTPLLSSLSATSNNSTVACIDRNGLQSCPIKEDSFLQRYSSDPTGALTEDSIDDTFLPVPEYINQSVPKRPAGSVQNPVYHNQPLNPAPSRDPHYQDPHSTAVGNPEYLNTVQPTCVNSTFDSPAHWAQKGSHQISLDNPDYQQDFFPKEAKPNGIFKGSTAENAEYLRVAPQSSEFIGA

## CN(C)CCOc1ccc(Nc2nccc(-c3sc(N4CCCCC4)nc3-c3cccc(NC(=O)c4c(F)cccc4F)c3)n2)cc1Cl [Example 72, N-{3-[5-{2-[(3-Chloro-4-{[2-(dimethylamino)ethyl]oxy}phenyl)amino]-4-pyrimidinyl}-2-(1-piperidinyl)-1,3-thiazol-4-yl]phenyl}-2,6-difluorobenzamide]
ErbB2
  IC50: < 100 nM
EGFR
  IC50: < 100 nM
HT-29 tumor cells
  IC50: 100 to 1000 nM
HN5 tumor cells
  IC50: 100 to 1000 nM
Colo205 tumor cells
  IC50: > 1000 nM
A375P F11s tumor cells
  IC50: > 1000 nM
SK-MEL-28 tumor cells
  IC50: > 1000 nM
BT474 tumor cells
  IC50: > 1000 nM
SK-MEL-3 tumor cells
  IC50: > 1000 nM

## CN(C)CCOc1ccc(Nc2nccc(-c3sc(N)nc3-c3cccc(C(=O)Nc4c(F)cccc4F)c3)n2)cc1Cl [Example 75, 3-(2-Amino-5-{2-[(3-chloro-4-{[2-(dimethylamino)ethyl]oxy}phenyl)amino]-4-pyrimidinyl}-1,3-thiazol-4-yl)-N-(2,6-difluorophenyl)benzamide]
ErbB2
  IC50: < 100 nM
EGFR
  IC50: < 100 nM
HT-29 tumor cells
  IC50: 100 to 1000 nM
HN5 tumor cells
  IC50: 100 to 1000 nM
Colo205 tumor cells
  IC50: 100 to 1000 nM
A375P F11s tumor cells
  IC50: 100 to 1000 nM
SK-MEL-28 tumor cells
  IC50: > 1000 nM
BT474 tumor cells
  IC50: < 100 nM
SK-MEL-3 tumor cells
  IC50: 100 to 1000 nM

## CN(C)CCOc1cccc(Nc2nccc(-c3scnc3-c3cccc(NC(=O)c4c(F)cccc4F)c3)n2)c1 [Example 79, N-[3-(5-{2-[(3-{[2-(Dimethylamino)ethyl]oxy}phenyl)amino]-4-pyrimidinyl}-1,3-thiazol-4-yl)phenyl]-2,6-difluorobenzamide-formic acid]
ErbB2
  IC50: < 100 nM
EGFR
  IC50: < 100 nM
HT-29 tumor cells
  IC50: 100 to 1000 nM
HN5 tumor cells
  IC50: < 100 nM
Colo205 tumor cells
  IC50: 100 to 1000 nM
A375P F11s tumor cells
  IC50: 100 to 1000 nM
SK-MEL-28 tumor cells
  IC50: > 1000 nM
BT474 tumor cells
  IC50: < 100 nM
SK-MEL-3 tumor cells
  IC50: > 1000 nM

## CS(=O)(=O)CCN1CCN(c2ccc(Nc3nccc(-c4scnc4-c4cccc(NC(=O)c5c(F)cccc5F)c4)n3)cc2F)CC1 [Example 80, 2,6-Difluoro-N-[3-(5-{2-[(3-fluoro-4-{4-[2-(methylsulfonyl)ethyl]-1-piperazinyl}phenyl)amino]-4-pyrimidinyl}-1,3-thiazol-4-yl)phenyl]benzamide]
ErbB2
  IC50: < 100 nM
EGFR
  IC50: < 100 nM
HT-29 tumor cells
  IC50: 100 to 1000 nM
HN5 tumor cells
  IC50: < 100 nM
Colo205 tumor cells
  IC50: > 1000 nM
A375P F11s tumor cells
  IC50: 100 to 1000 nM
SK-MEL-28 tumor cells
  IC50: 100 to 1000 nM
BT474 tumor cells
  IC50: < 100 nM
SK-MEL-3 tumor cells
  IC50: 100 to 1000 nM

## CN(C)CCOc1cccc(Nc2nccc(-c3scnc3-c3cccc(NC(=O)Cc4cccs4)c3)n2)c1 [Example 84, N-[3-(5-{2-[(3-{[2-(Dimethylamino)ethyl]oxy}phenyl)amino]-4-pyrimidinyl}-1,3-thiazol-4-yl)phenyl]-2-(2-thienyl)acetamide]
ErbB2
  IC50: < 100 nM
EGFR
  IC50: < 100 nM
HT-29 tumor cells
  IC50: > 1000 nM
HN5 tumor cells
  IC50: > 1000 nM
Colo205 tumor cells
  IC50: > 1000 nM
A375P F11s tumor cells
  IC50: > 1000 nM
SK-MEL-28 tumor cells
  IC50: > 1000 nM
BT474 tumor cells
  IC50: > 1000 nM
SK-MEL-3 tumor cells
  IC50: > 1000 nM

## CN(C)Cc1cccc(Nc2nccc(-c3scnc3-c3cccc(NC(=O)c4c(F)cccc4F)c3)n2)c1 [Example 90, N-(3-{5-[2-({3-[(Dimethylamino)methyl]-phenyl}amino)-4-pyrimidinyl]-1,3-thiazol-4-yl}phenyl)-2,6-difluorobenzamide-formic acid]
ErbB2
  IC50: < 100 nM
EGFR
  IC50: < 100 nM
HT-29 tumor cells
  IC50: 100 to 1000 nM
HN5 tumor cells
  IC50: 100 to 1000 nM
Colo205 tumor cells
  IC50: 100 to 1000 nM
A375P F11s tumor cells
  IC50: 100 to 1000 nM
SK-MEL-28 tumor cells
  IC50: > 1000 nM
BT474 tumor cells
  IC50: < 100 nM
SK-MEL-3 tumor cells
  IC50: > 1000 nM

## COc1ccc(Nc2nccc(-c3scnc3-c3cccc(NC(=O)c4c(F)cccc4F)c3)n2)cc1N1CCN(C)CC1 [Example 93, 2,6-Difluoro-N-{3-[5-(2-{[4-(methyloxy)-3-(4-methyl-1-piperazinyl)phenyl]amino}-4-pyrimidinyl)-1,3-thiazol-4-yl]phenyl}benzamide]
ErbB2
  IC50: < 100 nM
EGFR
  IC50: < 100 nM
HT-29 tumor cells
  IC50: 100 to 1000 nM
HN5 tumor cells
  IC50: < 100 nM
Colo205 tumor cells
  IC50: 100 to 1000 nM
A375P F11s tumor cells
  IC50: 100 to 1000 nM
SK-MEL-28 tumor cells
  IC50: 100 to 1000 nM
BT474 tumor cells
  IC50: < 100 nM
SK-MEL-3 tumor cells
  IC50: 100 to 1000 nM

## O=C(Nc1cccc(-c2ncsc2-c2ccnc(Nc3cccc(CN4CCCC4)c3)n2)c1)c1c(F)cccc1F [Example 94, 2,6-Difluoro-N-{3-[5-(2-{[3-(1-pyrrolidinylmethyl)phenyl]amino}-4-pyrimidinyl)-1,3-thiazol-4-yl]phenyl}benzamide]
ErbB2
  IC50: < 100 nM
EGFR
  IC50: < 100 nM
HT-29 tumor cells
  IC50: 100 to 1000 nM
HN5 tumor cells
  IC50: < 100 nM
Colo205 tumor cells
  IC50: 100 to 1000 nM
A375P F11s tumor cells
  IC50: > 1000 nM
SK-MEL-28 tumor cells
  IC50: > 1000 nM
BT474 tumor cells
  IC50: < 100 nM
SK-MEL-3 tumor cells
  IC50: 100 to 1000 nM

## NS(=O)(=O)CCc1cccc(Nc2nccc(-c3scnc3-c3cccc(NC(=O)c4c(F)cccc4F)c3)n2)c1 [Example 95, N-(3-{5-[2-({3-[2-(Aminosulfonyl)ethyl]phenyl}amino)-4-pyrimidinyl]-1,3-thiazol-4-yl}phenyl)-2,6-difluorobenzamide]
ErbB2
  IC50: < 100 nM
EGFR
  IC50: < 100 nM
HT-29 tumor cells
  IC50: 100 to 1000 nM
HN5 tumor cells
  IC50: < 100 nM
Colo205 tumor cells
  IC50: > 1000 nM
A375P F11s tumor cells
  IC50: 100 to 1000 nM
SK-MEL-28 tumor cells
  IC50: > 1000 nM
BT474 tumor cells
  IC50: < 100 nM
SK-MEL-3 tumor cells
  IC50: > 1000 nM

## Cc1nc(-c2cccc(NC(=O)c3c(F)cccc3F)c2)c(-c2ccnc(Nc3cccc(CN4CCCC4)c3)n2)s1 [Example 104, 2,6-Difluoro-N-{3-[2-methyl-5-(2-{[3-(1-pyrrolidinylmethyl)phenyl]amino}-4-pyrimidinyl)-1,3-thiazol-4-yl]phenyl}benzamide]
ErbB2
  IC50: < 100 nM
EGFR
  IC50: < 100 nM
HT-29 tumor cells
  IC50: 100 to 1000 nM
HN5 tumor cells
  IC50: 100 to 1000 nM
Colo205 tumor cells
  IC50: 100 to 1000 nM
A375P F11s tumor cells
  IC50: 100 to 1000 nM
SK-MEL-28 tumor cells
  IC50: > 1000 nM
BT474 tumor cells
  IC50: < 100 nM
SK-MEL-3 tumor cells
  IC50: 100 to 1000 nM

## Cc1nc(-c2cccc(NC(=O)c3c(F)cccc3F)c2)c(-c2ccnc(Nc3ccc(OCCN(C)C)c(F)c3)n2)s1 [Example 105, N-[3-(5-{2-[(4-{[2-(Dimethylamino)ethyl]oxy}-3-fluorophenyl)amino]-4-pyrimidinyl}-2-methyl-1,3-thiazol-4-yl)phenyl]-2,6-difluorobenzamide]
ErbB2
  IC50: < 100 nM
EGFR
  IC50: < 100 nM
HT-29 tumor cells
  IC50: 100 to 1000 nM
HN5 tumor cells
  IC50: < 100 nM
Colo205 tumor cells
  IC50: 100 to 1000 nM
A375P F11s tumor cells
  IC50: 100 to 1000 nM
SK-MEL-28 tumor cells
  IC50: > 1000 nM
BT474 tumor cells
  IC50: < 100 nM
SK-MEL-3 tumor cells
  IC50: > 1000 nM

## Cc1nc(-c2cccc(NC(=O)c3c(F)cccc3F)c2)c(-c2ccnc(Nc3ccc(OC4CCNCC4)c(F)c3)n2)s1 [Example 107, 2,6-DUDuoro-N-{3-[5-(2-{[3-fluoro-4-(4-piperidinyloxy)phenyl]amino}-4-pyrimidinyl)-2-methyl-1,3-thiazol-4-yl]phenyl}benzamide]
ErbB2
  IC50: < 100 nM
EGFR
  IC50: < 100 nM
HT-29 tumor cells
  IC50: 100 to 1000 nM
HN5 tumor cells
  IC50: < 100 nM
Colo205 tumor cells
  IC50: 100 to 1000 nM
A375P F11s tumor cells
  IC50: 100 to 1000 nM
SK-MEL-28 tumor cells
  IC50: 100 to 1000 nM
BT474 tumor cells
  IC50: < 100 nM
SK-MEL-3 tumor cells
  IC50: 100 to 1000 nM

## Cc1nc(-c2cccc(NC(=O)c3c(F)cccc3F)c2)c(-c2ccnc(Nc3ccc(OC4CCN(C)CC4)c(F)c3)n2)s1 [Example 108, 2,6-Difluoro-N-(3-{5-[2-({3-fluoro-4-[(1-methyl-4-piperidinyl)oxy]phenyl}amino)-4-pyrimidinyl]-2-methyl-1,3-thiazol-4-yl}phenyl)benzamide]
ErbB2
  IC50: < 100 nM
EGFR
  IC50: < 100 nM
HT-29 tumor cells
  IC50: 100 to 1000 nM
HN5 tumor cells
  IC50: 100 to 1000 nM
Colo205 tumor cells
  IC50: 100 to 1000 nM
A375P F11s tumor cells
  IC50: 100 to 1000 nM
SK-MEL-28 tumor cells
  IC50: > 1000 nM
BT474 tumor cells
  IC50: < 100 nM
SK-MEL-3 tumor cells
  IC50: > 1000 nM
